From ChEMBL document CHEMBL1201862, “PubChem BioAssay data set” (2004)
Structures can show the parent of a compound that is named as a salt. Active and inactive are the calls of the source.

Assays:
Cysteine protease ATG4B = biological target: T1, Cysteine protease ATG4B (Homo sapiens, UniProt Q9Y4P1); format: functional;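 further: Fluorescence-based dose-response confirmation assay measuring inhibition of ATG4B activity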
T1 sequence (Q9Y4P1 whole entry): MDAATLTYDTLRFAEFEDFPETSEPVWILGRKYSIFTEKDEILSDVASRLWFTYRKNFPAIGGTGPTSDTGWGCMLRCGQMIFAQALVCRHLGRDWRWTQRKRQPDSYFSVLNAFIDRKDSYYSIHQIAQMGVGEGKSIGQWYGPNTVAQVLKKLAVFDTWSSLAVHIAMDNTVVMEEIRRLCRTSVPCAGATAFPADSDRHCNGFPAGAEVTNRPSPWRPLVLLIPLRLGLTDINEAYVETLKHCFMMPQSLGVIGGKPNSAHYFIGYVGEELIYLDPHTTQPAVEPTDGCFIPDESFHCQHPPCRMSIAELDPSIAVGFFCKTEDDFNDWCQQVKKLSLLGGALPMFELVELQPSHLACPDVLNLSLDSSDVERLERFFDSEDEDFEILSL

Phospholipase A2 = Phospholipase A2 (Homo sapiens, UniProt P04054); format: functional;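 further: confirmatory dose-response counterscreen on phospholipase A2, testing hits that came from an ultra-high-throughput screen for ATG4B inhibitors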
Caspase-3 = biological target: T2, Caspase-3 (Homo sapiens, UniProt P42574); format: functional;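 further: Dose-response selectivity test against caspase-3 for candidate inhibitors of sentrin-specific proteases (SENPs)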
T2 sequence (P42574 whole entry): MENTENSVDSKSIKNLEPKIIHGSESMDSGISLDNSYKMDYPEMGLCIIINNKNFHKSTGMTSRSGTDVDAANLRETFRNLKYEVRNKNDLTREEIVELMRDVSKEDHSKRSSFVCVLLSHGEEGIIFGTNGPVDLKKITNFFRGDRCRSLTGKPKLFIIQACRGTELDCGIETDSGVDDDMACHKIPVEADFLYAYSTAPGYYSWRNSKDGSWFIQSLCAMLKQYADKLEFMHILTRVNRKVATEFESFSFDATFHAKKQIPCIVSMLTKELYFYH

[1] = biological target: T3, Sentrin-specific protease 7 (Homo sapiens, UniProt Q9BQF6); format: functional;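 further: Luminescence-based dose-response confirmation of ultra-high-throughput screening hits, measuring inhibition of SENP7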
T3 sequence (Q9BQF6 whole entry): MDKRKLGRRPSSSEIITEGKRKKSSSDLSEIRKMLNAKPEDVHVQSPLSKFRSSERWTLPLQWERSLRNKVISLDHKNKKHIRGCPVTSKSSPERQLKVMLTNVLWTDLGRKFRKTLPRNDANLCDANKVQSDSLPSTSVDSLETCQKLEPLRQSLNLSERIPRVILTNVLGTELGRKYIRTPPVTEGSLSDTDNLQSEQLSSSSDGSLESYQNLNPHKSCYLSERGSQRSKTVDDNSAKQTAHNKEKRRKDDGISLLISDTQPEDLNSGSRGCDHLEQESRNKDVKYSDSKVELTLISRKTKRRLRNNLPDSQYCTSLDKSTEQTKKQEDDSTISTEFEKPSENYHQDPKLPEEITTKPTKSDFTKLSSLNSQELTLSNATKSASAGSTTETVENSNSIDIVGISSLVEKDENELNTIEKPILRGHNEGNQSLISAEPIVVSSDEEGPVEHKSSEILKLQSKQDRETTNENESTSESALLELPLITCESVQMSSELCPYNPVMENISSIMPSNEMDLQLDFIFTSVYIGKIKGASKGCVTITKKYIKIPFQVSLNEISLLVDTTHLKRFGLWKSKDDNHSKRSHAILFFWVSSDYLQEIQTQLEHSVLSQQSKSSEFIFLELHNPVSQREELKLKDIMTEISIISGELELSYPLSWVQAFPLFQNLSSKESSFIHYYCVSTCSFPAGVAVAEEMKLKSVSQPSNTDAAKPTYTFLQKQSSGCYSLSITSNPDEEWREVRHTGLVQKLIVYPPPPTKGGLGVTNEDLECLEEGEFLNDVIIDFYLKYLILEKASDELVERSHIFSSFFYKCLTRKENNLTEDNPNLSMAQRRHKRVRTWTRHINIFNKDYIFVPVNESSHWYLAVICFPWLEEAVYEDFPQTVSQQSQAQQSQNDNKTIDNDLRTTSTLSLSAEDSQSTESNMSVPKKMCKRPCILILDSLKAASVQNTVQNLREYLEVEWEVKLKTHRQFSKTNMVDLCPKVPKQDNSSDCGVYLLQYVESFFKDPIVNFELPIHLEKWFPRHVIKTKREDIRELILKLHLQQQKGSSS

[2] = biological target: T4, Sentrin-specific protease 6 (Homo sapiens, UniProt Q9GZR1); format: functional;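 further: Luminescence-based dose-response confirmatory assay of SENP6 inhibition, following up an ultra-high-throughput screen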
T4 sequence (Q9GZR1 whole entry): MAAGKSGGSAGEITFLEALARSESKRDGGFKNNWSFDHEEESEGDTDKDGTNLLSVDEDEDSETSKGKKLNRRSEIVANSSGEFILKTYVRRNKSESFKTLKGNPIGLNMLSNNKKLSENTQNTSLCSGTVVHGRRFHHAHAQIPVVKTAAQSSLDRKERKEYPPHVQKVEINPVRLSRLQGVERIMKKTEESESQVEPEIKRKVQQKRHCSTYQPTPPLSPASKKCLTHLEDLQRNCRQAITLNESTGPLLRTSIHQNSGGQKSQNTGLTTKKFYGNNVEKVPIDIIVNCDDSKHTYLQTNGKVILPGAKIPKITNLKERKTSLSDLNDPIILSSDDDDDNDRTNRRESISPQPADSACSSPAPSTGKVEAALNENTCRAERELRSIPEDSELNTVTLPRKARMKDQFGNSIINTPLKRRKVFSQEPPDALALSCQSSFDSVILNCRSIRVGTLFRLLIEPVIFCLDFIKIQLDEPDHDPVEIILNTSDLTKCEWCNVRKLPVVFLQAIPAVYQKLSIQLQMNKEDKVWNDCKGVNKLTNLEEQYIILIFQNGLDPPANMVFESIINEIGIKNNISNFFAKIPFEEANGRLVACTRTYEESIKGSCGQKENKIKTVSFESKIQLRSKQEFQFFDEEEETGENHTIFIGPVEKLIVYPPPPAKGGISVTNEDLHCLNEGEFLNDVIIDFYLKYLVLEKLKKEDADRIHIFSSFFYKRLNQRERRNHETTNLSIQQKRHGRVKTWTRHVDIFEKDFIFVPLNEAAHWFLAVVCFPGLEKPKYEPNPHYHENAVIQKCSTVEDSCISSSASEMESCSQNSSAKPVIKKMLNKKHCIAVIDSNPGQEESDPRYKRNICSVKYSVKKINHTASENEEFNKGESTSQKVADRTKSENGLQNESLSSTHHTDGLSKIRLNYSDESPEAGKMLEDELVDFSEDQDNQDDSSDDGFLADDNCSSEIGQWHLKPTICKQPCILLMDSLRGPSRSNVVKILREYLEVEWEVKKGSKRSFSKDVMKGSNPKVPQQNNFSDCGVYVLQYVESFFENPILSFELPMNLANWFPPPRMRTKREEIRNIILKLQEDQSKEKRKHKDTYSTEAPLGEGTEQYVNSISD

[3] = biological target: T5, Sentrin-specific protease 8 (Homo sapiens, UniProt Q96LD8); format: functional;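 further: luminescence read-out of SENP8 inhibition, dose-response confirmation following an ultra-high-throughput screen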
T5 sequence (Q96LD8 whole entry): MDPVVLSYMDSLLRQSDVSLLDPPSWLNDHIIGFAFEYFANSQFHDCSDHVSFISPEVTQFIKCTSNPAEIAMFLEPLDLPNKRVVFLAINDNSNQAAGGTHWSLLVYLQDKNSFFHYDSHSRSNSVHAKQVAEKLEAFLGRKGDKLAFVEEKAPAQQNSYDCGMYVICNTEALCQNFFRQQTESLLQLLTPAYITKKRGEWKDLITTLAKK

Cytochrome P450 2C9 = Cytochrome P450 2C9 (Homo sapiens, UniProt P11712)
[4] = biological target: T6, High affinity choline transporter 1 (Homo sapiens, UniProt Q9GZV3); assay: CHT inhibitors, dose response, cell-based, 5-point CRC, membrane potential dye (AID 504840); format: functional
T6 sequence (Q9GZV3 whole entry): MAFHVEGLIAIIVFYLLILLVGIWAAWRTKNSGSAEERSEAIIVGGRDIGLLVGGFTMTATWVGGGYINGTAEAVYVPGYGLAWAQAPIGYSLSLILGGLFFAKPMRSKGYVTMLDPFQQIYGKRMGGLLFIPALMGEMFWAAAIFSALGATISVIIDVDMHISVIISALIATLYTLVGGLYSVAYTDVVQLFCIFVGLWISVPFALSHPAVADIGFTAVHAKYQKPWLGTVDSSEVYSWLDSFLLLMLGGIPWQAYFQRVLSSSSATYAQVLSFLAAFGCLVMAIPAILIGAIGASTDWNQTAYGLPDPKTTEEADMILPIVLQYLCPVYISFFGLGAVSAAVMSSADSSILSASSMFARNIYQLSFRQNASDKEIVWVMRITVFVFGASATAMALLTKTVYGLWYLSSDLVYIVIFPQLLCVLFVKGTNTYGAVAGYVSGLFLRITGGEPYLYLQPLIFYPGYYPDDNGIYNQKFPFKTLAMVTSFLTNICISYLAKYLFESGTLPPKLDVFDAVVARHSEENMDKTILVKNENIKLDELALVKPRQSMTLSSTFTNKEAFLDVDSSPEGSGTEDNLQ

[5] = biological target: T6, High affinity choline transporter 1; assay: CHT inhibitors, dose response, cell-based, 10-point CRC, membrane potential dye (AID 588401); format: functional;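 further: membrane potential dye fluorescence of choline-evoked depolarization via CHT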
[6] = biological target: Adenosylmethionine-8-amino-7-oxononanoate aminotransferase (Mycobacterium tuberculosis, UniProt P9WQ81); assay: Mycobacterium tuberculosis BioA enzyme inhibitor Measured in Biochemical System Using Plate Reader - 2163-02_Inhibitor_Dose_CherryPick_Activity.; format: functional, Mycobacterium tuberculosis UT205
[7] = biological target: Eukaryotic translation initiation factor 4E (Mus musculus, UniProt P63073); assay: eIF4E–eIF4G protein interaction inhibitors, dose response, biochemical, TR-FRET (AID 855); format: functional;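 further: potency for disrupting eIF4E binding to eIF4GI seen as loss of FRET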
[8] = biological target: Heat shock protein HSP 90-alpha (Homo sapiens, UniProt P07900); format: functional, organism-based
[9] = Shn3 3'UTR reporter inhibitors, dose response, cell-based, Clone20 osteoblasts, firefly luciferase, cherry-picked (AID 624132); format: functional;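 further: firefly luciferase luminescence from reporter carrying the Shn3 3'UTR in osteoblasts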
P388/ADR = assay: cells; format: functional; conditions: Mus musculus
[10] = HepG2 cell cytotoxicity, dose response, cytotoxicity control for Shn3 inhibitor project, CellTiter-Glo, cherry-picked (AID 624134); format: functional, cell-based
[11] = control 3'UTR Renilla luciferase suppression, dose response, counter-screen for Shn3 inhibitor project, cell-based, Clone20-Shn3RL, cherry-picked (AID 624133); format: functional
SN12K1 = assay: cells; format: functional; conditions: Homo sapiens
P388 = assay: cells; format: functional; conditions: Mus musculus
[12] = cytotoxicity in KRAS-transformed pancreatic duct cells, primary screen, cell-based, fluorescence, HTS (AID 431); format: functional; conditions: Homo sapiens;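 further: cell line used: HPDE-C7K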
[13] = Luminescence Cell-Based Dose Retest to Confirm Inhibitors of Cancer Stem Cells. [Related pubchem assays (depositor defined):AID2717, AID2721]; format: functional; conditions: Homo sapiens
[14] = biological target: T7, Ubiquitin-conjugating enzyme E2 N (Homo sapiens, UniProt P61088); format: functional;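 further: Dose-response confirmation in a TR-FRET assay detecting UBC13-driven polyubiquitin chain formation, inhibition measured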
T7 sequence (P61088 whole entry): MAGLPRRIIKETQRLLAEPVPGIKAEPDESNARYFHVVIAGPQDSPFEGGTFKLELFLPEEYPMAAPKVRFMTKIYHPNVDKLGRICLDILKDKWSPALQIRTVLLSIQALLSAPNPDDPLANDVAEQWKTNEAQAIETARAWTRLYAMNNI

Chain of Phospholipase A2 (P04054 whole entry): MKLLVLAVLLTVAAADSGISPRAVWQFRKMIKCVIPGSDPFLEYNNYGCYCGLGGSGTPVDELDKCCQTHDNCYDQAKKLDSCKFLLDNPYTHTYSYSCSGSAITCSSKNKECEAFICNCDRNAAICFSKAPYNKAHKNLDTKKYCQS
Chain of Adenosylmethionine-8-amino-7-oxononanoate aminotransferase (P9WQ81 whole entry): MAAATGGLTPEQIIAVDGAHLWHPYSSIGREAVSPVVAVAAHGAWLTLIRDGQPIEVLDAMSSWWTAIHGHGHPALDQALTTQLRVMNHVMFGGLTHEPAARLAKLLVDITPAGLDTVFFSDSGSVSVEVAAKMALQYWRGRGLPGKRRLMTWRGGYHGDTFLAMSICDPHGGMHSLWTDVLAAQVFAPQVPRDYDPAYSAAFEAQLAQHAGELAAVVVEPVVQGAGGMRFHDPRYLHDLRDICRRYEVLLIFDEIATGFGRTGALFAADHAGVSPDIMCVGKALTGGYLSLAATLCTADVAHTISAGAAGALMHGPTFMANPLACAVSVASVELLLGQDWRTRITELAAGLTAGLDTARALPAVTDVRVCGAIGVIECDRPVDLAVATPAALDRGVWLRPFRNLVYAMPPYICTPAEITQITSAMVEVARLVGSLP
Chain of Eukaryotic translation initiation factor 4E (P63073 whole entry): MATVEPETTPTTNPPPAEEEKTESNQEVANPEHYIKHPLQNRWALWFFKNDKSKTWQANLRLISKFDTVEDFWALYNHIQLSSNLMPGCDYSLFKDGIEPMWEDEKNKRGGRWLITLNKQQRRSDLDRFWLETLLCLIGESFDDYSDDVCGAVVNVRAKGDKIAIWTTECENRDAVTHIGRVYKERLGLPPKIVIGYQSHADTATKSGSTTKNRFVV
Chain of Cytochrome P450 2C9 (P11712 whole entry): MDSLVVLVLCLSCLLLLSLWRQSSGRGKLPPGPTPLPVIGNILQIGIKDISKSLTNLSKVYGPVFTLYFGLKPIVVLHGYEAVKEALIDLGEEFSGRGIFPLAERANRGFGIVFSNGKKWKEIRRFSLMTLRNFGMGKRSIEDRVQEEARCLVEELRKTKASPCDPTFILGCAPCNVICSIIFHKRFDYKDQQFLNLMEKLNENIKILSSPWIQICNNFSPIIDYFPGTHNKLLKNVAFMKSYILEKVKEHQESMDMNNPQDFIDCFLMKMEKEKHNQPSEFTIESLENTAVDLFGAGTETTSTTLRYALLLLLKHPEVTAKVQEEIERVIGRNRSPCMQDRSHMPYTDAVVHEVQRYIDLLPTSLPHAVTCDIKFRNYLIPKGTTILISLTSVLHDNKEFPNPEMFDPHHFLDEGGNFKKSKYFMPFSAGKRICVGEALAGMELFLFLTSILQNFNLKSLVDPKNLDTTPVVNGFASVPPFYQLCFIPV

## Cc1noc(C)c1COc1ccc(C(=O)OCC(=O)NCc2ccccc2Cl)cc1
Cysteine protease ATG4B
  IC50: 22.5 µM (inactive)
Phospholipase A2
  IC50: 6.59 µM (active)

## NC(=O)c1ccc(-c2ncc(-c3ccccc3)o2)cc1
Caspase-3
  IC50: 13.1 µM (active)
[1]
  IC50: 6.11 µM (active)
[2]
  IC50: 33.9 µM (active)
[3]
  IC50: 51.7 µM (active)
Cytochrome P450 2C9
  AC50: 2.51 µM (inconclusive)

## O=[N+]([O-])c1ccc(Sc2ncc3ccccn23)nc1
[4]
  IC50: 3.9 µM (active)
[5]
  IC50: 1.13 µM (active)

## C[C@@H](C(=O)N1CCN(Cc2ccc3c(c2)OCO3)CC1)n1nnc2ccccc2c1=O
[6]
  AC50: 4.11 µM (active)

## O=C(COC(=O)c1ccc([N+](=O)[O-])s1)NCc1ccccc1
Caspase-3
  IC50: 23.4 µM (active)
[1]
  IC50: 19.1 µM (active)
[2]
  IC50: 12.8 µM (active)
[3]
  IC50: 12.9 µM (active)

## CCn1cnc2sc(-c3ccccc3)cc2c1=O
Caspase-3
  IC50: 12.5 µM (active)
[1]
  IC50: 9.66 µM (active)
[2]
  IC50: 32.2 µM (active)
[3]
  IC50: 43.8 µM (active)

## O=c1[nH]ncc(N2CCCC2)c1Cl
[7]
  IC50: 50 µM (inactive)
[4]
  IC50: 8.71 µM (active)
[5]
  IC50: 7.51 µM (active)

## NC(=O)/C(=C\c1ccccc1)NC(=O)/C=C/c1ccccc1
Cysteine protease ATG4B
  IC50: 19.1 µM (active)
Phospholipase A2
  IC50: 15.5 µM (active)

## O=C(Nc1ccccc1N1CCN(c2ccccc2)CC1)c1ccccc1
Cysteine protease ATG4B
  IC50: 9.27 µM (active)
Phospholipase A2
  IC50: 6.48 µM (active)

## CCCCCCCCOC(=O)c1cc([N+](=O)[O-])c(Sc2[nH]cnc3ncnc2-3)c([N+](=O)[O-])c1
[8]
  AC50: 2.18 µM (active)
[9]
  AC50: 2.81 µM (active)
P388/ADR
  GI50: 0.152 µM (active)
[10]
  AC50: 11.5 µM (active)
[11]
  AC50: 10.6 µM (active)
SN12K1
  GI50: 0.912 µM (active)
P388
  GI50: 0.184 µM (active)

## CCC(Sc1nc2ccsc2c(=O)n1Cc1ccc(C(=O)O)cc1)C(=O)Nc1cccc(OC)c1 (stereo unspecified)
[6]
  AC50: 4.08 µM (active)

## CCCCCCCC(=O)O[C@H]1[C@H]2[C@@H](CC1(C)C)C(=O)[C@]13O[C@H]1C(=O)[C@]1(CO1)[C@]23C
P388/ADR
  GI50: 0.1 µM (active)
SN12K1
  GI50: 3.33 µM (inactive)
P388
  GI50: 0.0904 µM (active)

## CCCCc1oc2ccccc2c1C(=O)c1cc(I)c(OCCN(CC)CC)c(I)c1 [AMIODARONE HYDROCHLORIDE]
[12]
  EC50: 7.82 µM (active)
[13]
  AC50: 4.87 µM (active)
[14]
  IC50: > 20 µM (inactive)
SN12K1
  GI50: 3.77 µM (inactive)
P388
  GI50: 5.06 µM (inactive)
